In US10934302B1, “SHP2 phosphatase inhibitors and methods of use thereof” (Relay Therapeutics, Inc., priority 2018, dated 2021):

Each molecule was assayed against SHP2 (Homo sapiens (Human), UniProt Q06124) (assay: SHP2 allosteric inhibition assay (DiFMUP prompt fluorescence)). Details: 0.25 nM SHP2 activated with 0.5 μM peptide IRS1_pY1172(dPEG8)pY1222; substrate DiFMUP.
Assay type: biochemical

Chain of SHP2 (Q06124 whole entry): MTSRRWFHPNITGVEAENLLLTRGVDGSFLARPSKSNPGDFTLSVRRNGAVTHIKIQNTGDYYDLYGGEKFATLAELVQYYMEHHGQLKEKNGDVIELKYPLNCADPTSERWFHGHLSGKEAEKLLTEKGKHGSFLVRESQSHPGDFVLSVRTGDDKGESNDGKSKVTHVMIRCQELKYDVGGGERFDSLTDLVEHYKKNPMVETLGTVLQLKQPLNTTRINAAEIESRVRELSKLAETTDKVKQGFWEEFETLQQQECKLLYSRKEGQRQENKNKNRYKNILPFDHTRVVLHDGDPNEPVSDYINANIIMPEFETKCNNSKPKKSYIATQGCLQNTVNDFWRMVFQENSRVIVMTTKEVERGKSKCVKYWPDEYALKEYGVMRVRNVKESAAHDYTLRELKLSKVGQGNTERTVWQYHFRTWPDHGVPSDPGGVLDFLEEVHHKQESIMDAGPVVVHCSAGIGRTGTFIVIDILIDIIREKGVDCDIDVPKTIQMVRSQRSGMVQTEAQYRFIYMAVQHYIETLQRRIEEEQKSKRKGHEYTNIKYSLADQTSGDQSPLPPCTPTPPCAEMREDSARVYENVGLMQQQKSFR

| SMILES | IC50 |
| --- | --- |
| Cc1nc(SC2CCCC2)cnc1N1CCC2(CC1)Cc1ccccc1[C@H]2N [Example 249, (3S)-1′-[5-(cyclopentylsulfanyl)-3-methylpyrazin-2-yl]-1,3-dihydrospiro[indene-2,4′-piperidin]-3-amine] | ≤ 0.05 µM |
| N[C@@H]1c2ccccc2CC12CCN(c1ncc(SCC3CC3)c(=O)[nH]1)CC2 [Example 237] | ≤ 0.05 µM |
| N[C@@H]1c2ccccc2CC12CCN(c1cnc(S[C@@H]3CCOC3)cn1)CC2 [Example 235] | > 10 µM |
| N[C@@H]1c2ccccc2CC12CCN(c1cnc(C(=O)N3CCCc4ncccc43)cn1)CC2 [Example 111] | ≤ 0.05 µM |
| N[C@@H]1c2ccccc2CC12CCN(c1cnc(S[C@H]3CCOC3)cn1)CC2 (single isomer, unassigned) [Example 234] | ≤ 0.05 µM |
| N[C@@H]1c2ccccc2CC12CCN(c1nccnc1CO)CC2 [Example 120, {3-[(3S)-3-amino-1,3-dihydrospiro[indene-2,4′-piperidin]-1′-yl]pyrazin-2-yl}methanol] | ≤ 0.05 µM |
| Cc1nc(N2CCC3(CC2)Cc2ccccc2[C@H]3N)c(C)nc1Sc1ccnc(N)c1Cl [Example 215] | ≤ 0.05 µM |
| CNC(=O)c1n[nH]c2nc(N3CCC4(CC3)Cc3ccccc3[C@H]4N)c(CO)nc12 [Example 155, 6-[(3S)-3-amino-1,3-dihydrospiro[indene-2,4′-piperidin]-1′-yl]-5-(hydroxymethyl)-N-methyl-1H-pyrazolo[3,4-b]pyrazine-3-carboxamide] | ≤ 0.05 µM |
| Nc1nccc(-c2n[nH]c3nc(N4CCC5(CC4)Cc4ccccc4[C@H]5N)cnc23)c1F [Example 78, (S)-1′-(3-(2-amino-3-fluoropyridin-4-yl)-1H-pyrazolo[3,4-b]pyrazin-6-yl)-1,3-dihydrospiro[indene-2,4′-piperidin]-1-amine] | ≤ 0.05 µM |
| Cc1nc(N2CCC3(CC2)Cc2ccccc2[C@H]3N)c(CO)nc1-c1cccc(Cl)c1Cl [Example 20, (S)-(3-(1-amino-1,3-dihydrospiro[indene-2,4′-piperidin]-1′-yl)-6-(2,3-dichlorophenyl)-5-methylpyrazin-2-yl)methanol] | ≤ 0.05 µM |
| N#Cc1ccc2c(c1)N([C@H]1C[C@@H](O)C1)CCN2c1n[nH]c2nc(N3CCC4(CC3)Cc3ccccc3C4N)cnc12 (stereo partly drawn) [Example 34] | ≤ 0.05 µM |
| CNC(=O)c1n[nH]c2nc(N3CCC4(CC3)Cc3ccccc3[C@H]4N)c(C)nc12 [Example 125, 6-[(3S)-3-amino-1,3-dihydrospiro[indene-2,4′-piperidin]-1′-yl]-N,5-dimethyl-1H-pyrazolo[3,4-b]pyrazine-3-carboxamide] | ≤ 0.05 µM |
| N[C@H]1c2ccccc2C[C@]12CC[C@H](c1cnc(Sc3ccnc(Cl)c3Cl)cn1)CC2 (single isomer, unassigned) [Example 276, (1s, 3′R, 4S)-4-{5-[(2,3-dichloropyridin-4-yl)sulfanyl]pyrazin-2-yl}-1′,3′-dihydrospiro[cyclohexane-1,2′-inden]-3′-amine] | ≤ 0.05 µM |
| N[C@H]1c2c(F)ccc(F)c2CC12CCN(c1cnc3c(N4CCCc5ncccc54)n[nH]c3n1)CC2 [Example 62] | ≤ 0.05 µM |
| N[C@@H]1c2ccccc2CC12CCN(c1cnc(SCc3cccc(Cl)n3)cn1)CC2 [Example 263, (S)-1′-(5-(((6-chloropyridin-2-yl)methyl)thio)pyrazin-2-yl)-1,3-dihydrospiro[indene-2,4′-piperidin]-1-amine] | ≤ 0.05 µM |
| N[C@H]1c2ccccc2CC12CCN(c1cnc3c(-c4cccc5ncccc45)n[nH]c3n1)CC2 [Example 69] | ≤ 0.05 µM |
| N[C@H]1c2ccccc2CC12CCN(c1cnc3c(N4CCCc5nc(-c6ccn[nH]6)ccc54)n[nH]c3n1)CC2 [Example 3] | ≤ 0.05 µM |
| Cc1nc2c(N3CCOCC3)n[nH]c2nc1N1CCC2(CC1)Cc1ccccc1[C@H]2N [Example 160, (3S)-1′-[5-methyl-3-(morpholin-4-yl)-1H-pyrazolo[3,4-b]pyrazin-6-yl]-1,3-dihydrospiro[indene-2,4′-piperidin]-3-amine] | ≤ 0.05 µM |

| SMILES | IC50 |
| --- | --- |
| N[C@@H]1c2ccccc2CC12CCN(c1ncnc3c(-c4cccc(Cl)c4Cl)csc13)CC2 [Example 76] | ≤ 0.05 µM |
| CS(=O)(=O)c1cccc2c1CCCN2c1n[nH]c2nc(N3CCC4(CC3)Cc3c(F)cccc3[C@H]4N)cnc12 [Example 56] | ≤ 0.05 µM |
| N[C@@H]1c2ccccc2OC12CCN(c1cnc(Sc3ccnc(Cl)c3Cl)cn1)CC2 [Example 94] | ≤ 0.05 µM |
| N[C@H]1c2ccccc2OC12CCN(c1cnc3c(N4CCCc5ncccc54)n[nH]c3n1)CC2 [Example 118, (S)-1′-(3-(3,4-dihydro-1,5-naphthyridin-1(2H)-yl)-1H-pyrazolo[3,4-b]pyrazin-6-yl)-3H-spiro[benzofuran-2,4′-piperidin]-3-amine] | ≤ 0.05 µM |
| Cn1c(N2CCC3(CC2)Cc2ccccc2[C@H]3N)ccc(N2CCCc3ccccc32)c1=O [Example 206] | ≤ 0.05 µM |
| N[C@@H]1c2ccccc2OC12CCN(c1cnc(Sc3cccnc3Cl)cn1)CC2 [Example 96] | ≤ 0.05 µM |
| NC1c2ncccc2CC12CCN(c1cnc3c(N4CCCc5ncccc54)n[nH]c3n1)CC2 (stereo not drawn) [Example 45] | ≤ 0.05 µM |
| Cn1ccc2c(c1=O)CCCN2c1n[nH]c2nc(N3CCC4(CC3)Cc3ccc(F)cc3[C@H]4N)cnc12 [Example 58] | ≤ 0.05 µM |
| N[C@H]1c2ccccc2CC12CN(c1cnc3c(N4CCCc5ncccc54)n[nH]c3n1)C2 [Example 114] | ≤ 0.05 µM |
| N[C@@H]1c2cc(F)ccc2OC12CCN(c1cnc(SCC3CC3)cn1)CC2 [Example 239] | 0.05 to 1 µM |
| CN1CCN(c2n[nH]c3nc(N4CCC5(CC4)Cc4ccccc4[C@H]5N)cnc23)c2ccc(C#N)cc21 [Example 43] | ≤ 0.05 µM |
| Nc1nccc(Oc2n[nH]c3nc(N4CCC5(CC4)Cc4ccccc4[C@@H]5N)cnc23)c1Cl (single isomer, unassigned) [Example 136] | ≤ 0.05 µM |
| CO[C@H]1C[C@@H](N2CCN(c3n[nH]c4nc(N5CCC6(CC5)Cc5ccccc5C6N)cnc34)c3ccc(C#N)cc32)C1 (stereo partly drawn) [Example 32] | ≤ 0.05 µM |
| Nc1nccc(Oc2cnc(N3CCC4(CC3)Cc3ccccc3[C@H]4N)cn2)c1Cl [Example 133, (3S)-1′-{5-[(2-amino-3-chloropyridin-4-yl)oxy]pyrazin-2-yl}-1,3-dihydrospiro[indene-2,4′-piperidin]-3-amine] | ≤ 0.05 µM |
| Nc1nccc(Sc2cnc(N3CCC4(CC3)Cc3c(F)cccc3[C@H]4N)cn2)c1Cl [Example 139, (S)-1′-(5-((2-amino-3-chloropyridin-4-yl)thio)pyrazin-2-V)-4-fluoro-1,3-dihydrospiro[indene-2,4′-piperidin]-1-amine] | ≤ 0.05 µM |
| N[C@@H]1c2ccccc2C[C@]12CC[C@H](c1ccc(Sc3ccnc(Cl)c3Cl)nc1)CC2 [Example 279, (1s,3'S,4R)-4-{6-[(2,3-dichloropyridin-4-yl)sulfanyl]pyridin-3-yl}-1′,3′-dihydrospiro[cyclohexane-1,2′-inden]-3′-amine] | ≤ 0.05 µM |
| N[C@@H]1c2ccccc2O[C@]12C[C@H]1CC[C@@H](C2)N1c1cnc(SCC2CC2)cn1 [Example 274, (1′R,2r,3R,5'S)-8′-(5-((cyclopropylmethyl)thio)pyrazin-2-yl)-3H-8′-azaspiro[benzofuran-2,3′-bicyclo[3.2.1]octan]-3-amine] | 1 to 10 µM |
| N[C@@H]1c2c(F)ccc(F)c2CC12CCN(c1cnc3c(N4CCCc5ncccc54)n[nH]c3n1)CC2 [Example 112] | ≤ 0.05 µM |
